Test results as given in patent US9668979B2, “Piperaquine microcapsules and compositions containing them” (ADARE PHARMACEUTICALS S.R.L., priority 2013, dated 2017).

Assay: Compatibility of piperaquine with the coacervation process (heating/cooling cycles; assay, Karl Fischer, XRPD)
Assay type: physicochemical
Conditions: heating/cooling cycles mimicking the process
Description: Water content: Karl Fischer titration: Ph. Eur. 2.5.12 Method; following sample titration conditions are applied: sample solvent: methanol: formamide 1:1; sample weight: 50 mg; the value of water content in a sample is expressed as % w/w. X-Ray Powder Diffraction (XRPD) measurements are performed on a Philips X′Pert PRO diffractometer (Bragg-Brentano geometry). A compatibility study is carried out on piperaquine to assess the compatibility of the drug with the coacervation process. In particular, piperaquine undergoes heating/cooling cycles mimicking thermal excursions of the process. Then, the following tests are performed both before and after thermal cycles to ascertain the stability of piperaquine: water content analysis (Karl Fisher test); effect of mechanical stress; crystalline structure by XRPD.

Q: Which “Effect of heating/cooling cycle on the drug” value does the source give for `Clc1ccc2c(N3CCN(CCCN4CCN(c5ccnc6cc(Cl)ccc56)CC4)CC3)ccnc2c1` [PQP•4H2O, 4,4′-(1,3-propanediyldi-4,1-piperazinediyl) bis(7-chloroquinoline) phosphate hydrate (1:4:4)] here?
A: The value was “not affected by heating/cooling cycle”.
